Data on 5 compounds can be found in paper PMC9919513, “A Practical Approach to Bicyclic Carbamoyl Pyridones with Application to the Synthesis of HIV-1 Integrase Strand Transfer Inhibitors” (Molecules, 2023).

A short description of this series: in vitro. Particulars: human, HOS cells, 48 h; read-out: CC50, cytotoxic concentration resulting in 50% reduction in the level of ATP. It is filed as cell-based. On the procedure: Human embryonic kidney cell culture cell line 293 was acquired from the American Type Culture Collection (ATCC). The human osteosarcoma cell line, HOS, was obtained from Dr. Richard Schwartz (Michigan State University, East Lansing, MI, USA) and grown in Dulbecco’s modified Eagle’s medium (Invitrogen, Carlsbad, CA, USA) supplemented with 5% (v/v) fetal bovine serum, 5% newborn calf serum, and penicillin (50 units/mL) plus streptomycin (50 µg/mL; Quality Biological, Gaithersburg, MD, USA). The transfection vector, pNLNgoMIVR-ΔLUC was made from pNLNgoMIVR-ΔEnv.HSA by removing the HSA reporter gene and replacing it with a luciferase reporter gene between the NotI and XhoI restriction sites. To produce the new IN mutant S230N used in this study, the IN open reading frame was removed from pNLNgoMIVR-ΔENV.LUC by digestion with KpnI and SalI, and the resulting fragment was inserted between the KpnI and SalI sites of pBluescript KS+. Using that construct as the wild-type template, we prepared the following HIV-1 IN mutant S230N using the QuikChange II XL site-directed mutagenesis kit (Agilent Technologies, Santa Clara, CA, USA) protocol. The following sense oligonucleotides were used with matching cognate antisense oligonucleotides (not shown) (Integrated DNA Technologies, Coralville, IA, USA) in the mutagenesis: S230N 5′-[…]-3′. The DNA sequence of the IN mutant S230N construct was verified independently by DNA sequence determination. The mutated IN coding sequences from pBluescript KS+ were then subcloned into pNLNgoMIVR-ΔEnv.LUC (between the KpnI and SalI sites) to produce mutant HIV-1 constructs, which were also checked by DNA sequencing. […]. On the day prior to transfection, 293 cells were plated on 100 mm diameter dishes at a density of 1.5 × 10^6 cells per plate. Next, 293 cells were transfected with 16 µg of pNLNgoMIVR^-ΔLUC and 4 µg of pHCMV-g (obtained from Dr. Jane Burns, University of California, San Diego) using the calcium phosphate method. At approximately 6 h after the calcium phosphate precipitate was added, 293 cells were washed twice with phosphate-buffered saline (PBS) and incubated with fresh media for 48 h. The virus-containing supernatants were then harvested, clarified by low-speed centrifugation, filtrated, and diluted for preparation in antiviral infection assays. On the day prior to the screen, HOS cells were seeded in a 96-well luminescence cell culture plate at a density of 4000 cells in 100 µL per well. On the day of the screen for cellular cytotoxicity determination, cells were treated with compounds from a concentration range of 250 µM to 0.05 µM and then incubated at 37 °C for 48 h. On the day of the screen for antiviral activity infection assays, cells were treated with compounds from a concentration range of 5 µM to 0.0001 µM using 11 serial dilutions and then incubated at 37 °C for 3 h. After compound incorporation and activation in the cell, 100 µL of virus-stock (WT or mutant) diluted to achieve a luciferase signal between 0.2 and 1.5 Relative Luciferase Units (RLUs) was added to each well and further incubated at 37 °C for 48 h. Cellular cytotoxicity was measured by using the ATP Lite Luminescence detection system and monitored by adding 50 µL of cell lysis buffer from the Luminescence ATP detection assay to each well followed by mixing at 700 rpm at room temperature for 5 min using a compact thermomixer. After addition of 50 µL of reconstituted Luminescence ATP detection assay reagent to all wells except for the negative control/background wells, the plates were mixed at 700 rpm at room temperature for 5 min using a compact thermomixer, incubated at room temperature for 20 min to allow time for signal development, and finally, cytotoxicity was determined using the microplate reader. Infectivity was measured by using the Steady-lite plus luminescence reporter gene assay system (PerkinElmer, Waltham, MA, USA). […]
`O=C(NCc1ccc(F)cc1F)c1cn2c(c(O)c1=O)C(=O)N(CCCCO)CC2` [Compound 7e, N-(2,4-Difluorobenzyl)-9-hydroxy-2-(4-hydroxybutyl)-1,8-dioxo-1,3,4,8-tetrahydro-2H-pyrido [1,2-a]pyrazine-7-carboxamide]: the CC50 was more than 250 µM.
With `O=C(NCc1ccc(F)cc1F)c1cn2ccn(CCCCO)c(=O)c2c(O)c1=O` [Compound 6e, N-(2,4-Difluorobenzyl)-9-hydroxy-2-(4-hydroxybutyl)-1,8-dioxo-1,8-dihydro-2H-pyrido [1,2-a]pyrazine-7-carboxamide], the CC50 was more than 250 µM.
Next, `O=C(NCc1ccc(F)cc1F)c1cn2c(c(O)c1=O)C(=O)N(CCCCCCO)CC2` [Compound 7c, N-(2,4-Difluorobenzyl)-9-hydroxy-2-(6-hydroxyhexyl)-1,8-dioxo-1,3,4,8-tetrahydro-2H-pyrido [1,2-a]pyrazine-7-carboxamide]: more than 250 µM; `O=C(NCc1ccc(F)cc1F)c1cn2ccn(CCCCCO)c(=O)c2c(O)c1=O` [Compound 6d, N-(2,4-Difluorobenzyl)-9-hydroxy-2-(5-hydroxypentyl)-1,8-dioxo-1,8-dihydro-2H-pyrido [1,2-a]pyrazine-7-carboxamide]: more than 250 µM.
Next, `O=C(NCc1ccc(F)cc1F)c1cn2ccn(CCCCCCO)c(=O)c2c(O)c1=O` [Compound 6c, N-(2,4-Difluorobenzyl)-9-hydroxy-2-(6-hydroxyhexyl)-1,8-dioxo-1,8-dihydro-2H-pyrido [1,2-a]pyrazine-7-carboxamide]: more than 250 µM.
